Assay results published in patent publication US20230278972A1, “SUBSTITUTED HALOALKYL SULFONANILIDE HERBICIDES” (FMC Corporation, priority 2020, published 2023).

Legend:
Format in all cases: in vivo
[1] = system: ragweed (common ragweed, Ambrosia artemisiifolia); assay: Test A preemergence, ragweed; settings: Preemergence; for Plant response rating, Ragweed: 31 g ai/ha, visual injury, 0 to 100 scale (0 no effect, 100 complete control), approx. 10 days; for Ragweed plant response rating: 125 g ai/ha, visual injury on 0 to 100 scale (0 no effect, 100 complete control), approximately 10 days
Procedure, shortened: (§1)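 Test chemicals, formulated in a non-phytotoxic solvent mixture with surfactant, were sprayed postemergence on plants 2 to 10 cm tall at the one- to two-leaf stage. Preemergence treatment was a directed soil spray onto freshly seeded pots. Both used a loam soil and sand blend.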

[2] = system: wheat (Triticum aestivum); assay: Test A postemergence, wheat; settings: Postemergence
Procedure, shortened: (§2)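 Barnyardgrass, wheat and galium were treated postemergence at the one- to two-leaf stage (2 to 10 cm) with chemicals formulated in non-phytotoxic solvent plus surfactant, grown in loam soil–sand pots. Pigweed was sown in the same blend and given a preemergence directed soil spray.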

[3] = system: corn (Zea mays); assay: Test A postemergence, corn; settings: Postemergence
Procedure, shortened: as §1

[4] = system: Ryegrass, Italian (Italian ryegrass, Lolium multiflorum); assay: Test A preemergence, Ryegrass, Italian; settings: Preemergence; for Plant response rating, Ryegrass, Italian: 31 g ai/ha, visual injury, 0 to 100 scale (0 no effect, 100 complete control), approx. 10 days; for Ryegrass, Italian plant response rating: 125 g ai/ha, visual injury on 0 to 100 scale (0 no effect, 100 complete control), approximately 10 days
Procedure, shortened: as §1

[5] = system: kochia (Bassia scoparia); assay: Test A postemergence, kochia; settings: Postemergence
Procedure, shortened: as §1

[6] = system: ragweed (common ragweed, Ambrosia artemisiifolia); assay: Test A postemergence, ragweed; settings: Postemergence
Procedure, shortened: as §1

[7] = system: galium (catchweed bedstraw, Galium aparine); assay: Test A postemergence, galium; settings: Postemergence
Procedure, shortened: as §2

[8] = system: blackgrass (Alopecurus myosuroides); assay: Test A postemergence, blackgrass; settings: Postemergence
Procedure, shortened: as §1

[9] = system: barnyardgrass (Echinochloa crus-galli); assay: Test A postemergence, barnyardgrass; settings: Postemergence
Procedure, shortened: as §2

[10] = system: kochia (Bassia scoparia); assay: Test A preemergence, kochia; settings: Preemergence; for Plant response rating, Kochia: 31 g ai/ha, visual injury, 0 to 100 scale (0 no effect, 100 complete control), approx. 10 days; for Kochia plant response rating: 125 g ai/ha, visual injury on 0 to 100 scale (0 no effect, 100 complete control), approximately 10 days
Procedure, shortened: as §1

[11] = system: pigweed (Amaranthus retroflexus); assay: Test A preemergence, pigweed; settings: for Plant response rating, Pigweed: 31 g ai/ha, visual injury, 0 to 100 scale (0 no effect, 100 complete control), approx. 10 days; for Pigweed plant response rating: 125 g ai/ha, visual injury on 0 to 100 scale (0 no effect, 100 complete control), approximately 10 days
Procedure, shortened: as §2

[12] = system: barnyardgrass (Echinochloa crus-galli); assay: Test A preemergence, barnyardgrass; settings: Preemergence; for Plant response rating, Barnyardgrass: 31 g ai/ha, visual injury, 0 to 100 scale (0 no effect, 100 complete control), approx. 10 days; for Barnyardgrass plant response rating: 125 g ai/ha, visual injury on 0 to 100 scale (0 no effect, 100 complete control), approximately 10 days
Procedure, shortened: as §1

[13] = system: Foxtail, Giant (giant foxtail, Setaria faberi); assay: Test A preemergence, Foxtail, Giant; settings: Preemergence; for Plant response rating, Foxtail, Giant: 31 g ai/ha, visual injury, 0 to 100 scale (0 no effect, 100 complete control), approx. 10 days; for Foxtail, Giant plant response rating: 125 g ai/ha, visual injury on 0 to 100 scale (0 no effect, 100 complete control), approximately 10 days
Procedure, shortened: as §1

[14] = system: Ryegrass, Italian (Italian ryegrass, Lolium multiflorum); assay: Test A postemergence, Ryegrass, Italian; settings: Postemergence
Procedure, shortened: as §1

[15] = system: Foxtail, Giant (giant foxtail, Setaria faberi); assay: Test A postemergence, Foxtail, Giant; settings: Postemergence
Procedure, shortened: as §1

[16] = system: pigweed (Amaranthus retroflexus); assay: Test A postemergence, pigweed; settings: Postemergence
Procedure, shortened: as §1

[17] = 31 g ai/ha, visual injury on 0 to 100 scale (0 no effect, 100 complete control), approx. 10 days
[18] = 125 g ai/ha, 0 to 100 scale (0 no effect, 100 complete control)
[19] = 31 g ai/ha, 0 to 100 scale (0 no effect, 100 complete control)

SMILES	Plant response rating, Ragweed [1]	Ragweed plant response rating [1]	Plant response rating, Wheat [2, 17]	Plant response rating, Wheat [2, 18]	Plant response rating, Corn [3, 17]	Plant response rating, Corn [3, 18]	Plant response rating, Ryegrass, Italian [4]	Ryegrass, Italian plant response rating [4]	Plant response rating, Kochia [5, 17]	Plant response rating, Kochia [5, 18]	Plant response rating, Ragweed [6, 17]	Plant response rating, Ragweed [6, 18]	Plant response rating, Galium [7, 17]	Plant response rating, Galium [7, 18]	Plant response rating, Blackgrass [8, 18]	Plant response rating, Barnyardgrass [9, 18]	Plant response rating, Kochia [10]	Kochia plant response rating [10]	Plant response rating, Pigweed [11]	Pigweed plant response rating [11]	also measured
CCC(C)C(=O)OCN(c1cc(C2=NOC3(CCCC3)C2)c(C)cc1C)S(=O)(=O)C(F)(F)F (stereo not shown) [Compound 151]	0	30	0	50	0	10	30	90	10	10	0	40	60	70	0	30	0	0	50	90	Plant response rating, Blackgrass [8, 19]: 0; Plant response rating, Barnyardgrass [9, 19]: 0; Plant response rating, Barnyardgrass [12]: 0; Barnyardgrass plant response rating [12]: 90; Plant response rating, Foxtail, Giant [13]: 60; Foxtail, Giant plant response rating [13]: 100; Plant response rating, Ryegrass, Italian [14, 17]: 0; Plant response rating, Ryegrass, Italian [14, 18]: 0; Plant response rating, Foxtail, Giant [15, 17]: 0; Plant response rating, Foxtail, Giant [15, 18]: 30; Plant response rating, Pigweed [16, 17]: 30; Plant response rating, Pigweed [16, 18]: 30
Cc1cc(C)c(N(COC(=O)CC(C)C)S(=O)(=O)C(F)(F)F)cc1C1=NOC2(CCCC2)C1 [Compound 152]	0	30	40	30	10	0	0	40	10	10	0	40	20	60	0	10	0	0	30	100	Plant response rating, Blackgrass [8, 17]: 0; Plant response rating, Barnyardgrass [9, 17]: 0; Plant response rating, Barnyardgrass [12]: 0; Barnyardgrass plant response rating [12]: 70; Plant response rating, Foxtail, Giant [13]: 40; Foxtail, Giant plant response rating [13]: 80; Plant response rating, Ryegrass, Italian [14, 17]: 0; Plant response rating, Ryegrass, Italian [14, 18]: 0; Plant response rating, Foxtail, Giant [15, 17]: 10; Plant response rating, Foxtail, Giant [15, 18]: 10; Plant response rating, Pigweed [16, 17]: 30; Plant response rating, Pigweed [16, 18]: 60
Cc1cc(Cl)c(NS(=O)(=O)C(F)(F)F)cc1C(=O)N1CCOCC1(C)C [Compound 153]	40	60	0	30	0	20	30	70	0	10	30	70	60	70	50	50	60	80	80	90	Plant response rating, Blackgrass [8, 17]: 0; Plant response rating, Barnyardgrass [9, 17]: 10; Plant response rating, Barnyardgrass [12]: 0; Barnyardgrass plant response rating [12]: 70; Plant response rating, Foxtail, Giant [13]: 40; Foxtail, Giant plant response rating [13]: 90; Plant response rating, Ryegrass, Italian [14, 17]: 30; Plant response rating, Ryegrass, Italian [14, 18]: 80; Plant response rating, Foxtail, Giant [15, 17]: 10; Plant response rating, Foxtail, Giant [15, 18]: 20; Plant response rating, Pigweed [16, 17]: 0; Plant response rating, Pigweed [16, 18]: 30
CCOC1CCCN(C(=O)c2cc(NS(=O)(=O)C(F)(F)F)c(C)cc2C)C1 (stereo not shown) [Compound 154]	50	80	30	70	0	10	20	70	10	30	0	20	50	80	20	70	0	40	20	100	Plant response rating, Blackgrass [8, 17]: 0; Plant response rating, Barnyardgrass [9, 17]: 30; Plant response rating, Barnyardgrass [12]: 0; Barnyardgrass plant response rating [12]: 50; Plant response rating, Foxtail, Giant [13]: 60; Foxtail, Giant plant response rating [13]: 90; Plant response rating, Ryegrass, Italian [14, 17]: 0; Plant response rating, Ryegrass, Italian [14, 18]: 0; Plant response rating, Foxtail, Giant [15, 17]: 20; Plant response rating, Foxtail, Giant [15, 18]: 20; Plant response rating, Pigweed [16, 17]: 40; Plant response rating, Pigweed [16, 18]: 60
Cc1cc(C)c(C(=O)N2CCCC(F)C2)cc1NS(=O)(=O)C(F)(F)F (stereo not shown) [Compound 155]	90	80	30	60	50	90	80	80	20	60	60	80	80	90	30	90	30	40	90	100	Plant response rating, Blackgrass [8, 17]: 10; Plant response rating, Barnyardgrass [9, 17]: 90; Plant response rating, Barnyardgrass [12]: 50; Barnyardgrass plant response rating [12]: 90; Plant response rating, Foxtail, Giant [13]: 50; Foxtail, Giant plant response rating [13]: 80; Plant response rating, Ryegrass, Italian [14, 17]: 40; Plant response rating, Ryegrass, Italian [14, 18]: 90; Plant response rating, Foxtail, Giant [15, 17]: 20; Plant response rating, Foxtail, Giant [15, 18]: 30; Plant response rating, Pigweed [16, 17]: 80; Plant response rating, Pigweed [16, 18]: 90
